Marks after values point to notes of the source that are not given here.
Assays:
[1] = tested on: serum adenosine deaminase (ADA); assay: serum ADA activity in rats with hyperuricemia induced by oteracil potassium; assay type: in vivo, rat; settings: 30 days, peptide samples 200 mg/kg, allopurinol 50 mg/kg
Description: (§1) As the index in the following examples, the experimental method of therapeutic effects of the peptide samples on the oteracil potassium-induced hyperuricemia in rats was as follow:
(§2) Animals: 140 SPF grade SD male rats, weight 200±20 g, purchased from Laboratory Animal Center of Guangzhou University of Chinese Medicine.
(§3) Animal grouping and modeling: Taking a total of 140 healthy male SD rats, and randomly dividing them into a normal control group (20 rats) and a model group (120 rats); the model group rats were gavage with oteracil potassium (daily dose: 2 g/kg) for 7 days, then the rat were anesthetized via intraperitoneally injecting 3% pentobarbital sodium (30 mg/kg) after the last administration, their blood was taken from conjunctival (0.5 ml), then centrifuging at 4° C. and 3000 r/min for 15 min, and taking the upper serum to determine the uric acid content, and the rats in the normal control group were treated with a constant volume of solvent by intragastric administration. The rats with the uric acid content above 110 μmol/L were identified to be successful in modeling. […]

[2] = tested on: rats with hyperuricemia induced by oteracil potassium; assay: serum uric acid content in rats with hyperuricemia induced by oteracil potassium; assay type: in vivo, rat
Description: as §1, §2
Animal grouping and modeling: Taking a total of 140 healthy male SD rats, and randomly dividing them into a normal control group (20 rats) and a model group (120 rats); the model group rats were gavage with oteracil potassium (daily dose: 2 g/kg) for 7 days, then the rat were anesthetized via intraperitoneally injecting 3% pentobarbital sodium (30 mg/kg) after the last administration, their blood was taken from conjunctival (0.5 ml), then centrifuging at 4° C. and 3000 r/min for 15 min, and taking the upper serum to determine the uric acid content, and the rats in the normal control group were treated with a constant volume of solvent by intragastric administration. The rats with the uric acid content above 110 μmol/L were identified to be successful in modeling.
The rats successful in modeling, according to the uric acid content, was randomly dividing into a model control group (constant volume solvent), a tested peptide sample group (200 mg/kg) and an allopurinol group (50 mg/kg) at 14 rats per group, and the rats were gavage with oteracil potassium (daily dose: 2 g/kg) at a dose of 10 ml/kg, with the model rats treated with a constant volume of distilled water. Administering 3% pentobarbital sodium (30 mg/kg) for 50 min at the end of administering the above-mentioned peptide samples for 10 days and 20 days, drawing the conjunctival blood (0.5 ml), and determining the serum uric acid content; after the 30th day of treatment with anti-gout peptides, drawing the celiac artery blood 5 ml after anesthesia with 3% pentobarbital sodium, and determining the content of serum creatinine and urea nitrogen in addition to determining the serum uric acid content.
Determination of serum uric acid: using the tungstic acid method and strictly following the determination method from the kit instructions.
Statistical treatment: all data is presented as “mean±standard deviation”, t test was performed to determine the significant difference between samples at the 95% confidence interval using SPSS 19.0 software.

[3] = tested on: rats with hyperuricemia induced by oteracil potassium; assay: serum creatinine and urea nitrogen content in rats with hyperuricemia induced by oteracil potassium; assay type: in vivo, rat; settings: 30 days, peptide samples 200 mg/kg, allopurinol 50 mg/kg
Description: as §1, §2, §3

[4] = target: T1, serum xanthine oxidase (XOD) (Rattus norvegicus, UniProt P22985); assay: serum XOD activity in rats with hyperuricemia induced by oteracil potassium; assay type: in vivo; settings: 30 days, peptide samples 200 mg/kg, allopurinol 50 mg/kg
T1 construct: Taking 100 μl of serum for determination of XOD; from tissue; host or cells: serum of SD male rats
T1 sequence (P22985 whole entry): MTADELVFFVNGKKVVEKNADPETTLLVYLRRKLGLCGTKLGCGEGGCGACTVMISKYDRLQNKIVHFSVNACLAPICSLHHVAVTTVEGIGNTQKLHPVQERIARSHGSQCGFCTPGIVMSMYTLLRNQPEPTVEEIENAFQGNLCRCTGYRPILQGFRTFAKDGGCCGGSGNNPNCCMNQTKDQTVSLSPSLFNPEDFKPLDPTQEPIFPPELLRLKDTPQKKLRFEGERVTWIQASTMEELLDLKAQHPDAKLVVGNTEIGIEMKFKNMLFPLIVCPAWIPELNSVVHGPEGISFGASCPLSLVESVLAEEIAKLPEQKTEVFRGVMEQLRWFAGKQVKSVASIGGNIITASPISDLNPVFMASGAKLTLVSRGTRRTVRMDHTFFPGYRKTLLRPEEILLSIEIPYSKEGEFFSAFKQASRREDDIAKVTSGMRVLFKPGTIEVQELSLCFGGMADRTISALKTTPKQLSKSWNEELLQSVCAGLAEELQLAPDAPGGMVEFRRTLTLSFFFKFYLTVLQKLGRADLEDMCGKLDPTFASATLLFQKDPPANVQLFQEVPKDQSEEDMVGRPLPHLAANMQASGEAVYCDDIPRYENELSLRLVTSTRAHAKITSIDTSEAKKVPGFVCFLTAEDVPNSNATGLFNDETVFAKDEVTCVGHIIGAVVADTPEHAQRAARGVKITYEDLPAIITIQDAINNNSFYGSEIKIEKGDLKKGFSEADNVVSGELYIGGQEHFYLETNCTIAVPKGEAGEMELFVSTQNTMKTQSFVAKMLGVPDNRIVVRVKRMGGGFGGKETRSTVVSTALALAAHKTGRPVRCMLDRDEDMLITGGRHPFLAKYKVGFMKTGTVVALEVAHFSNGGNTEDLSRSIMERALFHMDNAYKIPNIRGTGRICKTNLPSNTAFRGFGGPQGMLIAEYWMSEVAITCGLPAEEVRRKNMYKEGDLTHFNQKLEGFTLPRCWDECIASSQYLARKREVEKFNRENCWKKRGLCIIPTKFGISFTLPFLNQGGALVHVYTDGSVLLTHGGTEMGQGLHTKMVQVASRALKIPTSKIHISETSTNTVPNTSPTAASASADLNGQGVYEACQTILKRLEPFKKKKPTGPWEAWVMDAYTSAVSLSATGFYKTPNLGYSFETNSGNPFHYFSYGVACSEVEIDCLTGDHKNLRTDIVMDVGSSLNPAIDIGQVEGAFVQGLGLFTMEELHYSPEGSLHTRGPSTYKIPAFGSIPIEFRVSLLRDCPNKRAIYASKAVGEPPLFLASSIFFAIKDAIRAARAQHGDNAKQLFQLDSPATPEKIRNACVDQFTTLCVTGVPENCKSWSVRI
Description: as §1, §2, §3

Structure (SMILES): Oc1ncnc2[nH]ncc12 [Allopurinol]
- ADA [1]: 12.28 ± 7.88^b U/ml
- effect on serum uric acid content, in words ([2]; hyperuricemia model rats, compared with model group): significantly decreased (p<0.01)
- Uric acid value, before administration ([2]; serum, SD male rats after modeling with oteracil potassium 2 g/kg daily, baseline before administration): 230.4 ± 19.1 µmol/L
- Uric acid value, treatment for 10 days ([2]; serum, gavage, peptide samples 200 mg/kg, allopurinol 50 mg/kg, 10 days): 89.5 ± 22.4^b μmol/L
- Uric acid value, treatment for 20 days ([2]; serum, gavage, peptide samples 200 mg/kg, allopurinol 50 mg/kg, 20 days): 94.5 ± 13.9^b μmol/L
- Uric acid value, treatment for 30 days ([2]; serum, gavage, peptide samples 200 mg/kg, allopurinol 50 mg/kg, 30 days): 92.8 ± 20.9^b μmol/L
- Creatinine [3]: 41.8 ± 13.2^b μmol/L
- XOD [4]: 8.61 ± 2.46^b U/L

From patent US10575537B2, “Saury Maillard peptide and its preparation method and application” (South China University of Technology, priority 2015, dated 2020)
